# In US20110086389A1, “Compositions and Methods for Expressing In-Frame Multimeric Proteins” (priority 2008, published 2011):
# Read-outs that look alike come from different tables or passages of the source. Where a SMILES comes first, the peptide text is derived from it. Bridges are numbered along the chain shown (N, C = ends). Where no end group is shown, it is not given here.
# Legend:
# [1] = molecular target: T1, Kv1.1-1.2 dimer-containing channel (Rattus norvegicus, UniProt P10499+P63142); test: Whole-cell voltage-clamp inhibition of K+ current, dimer-containing channel; assay type: cell-based; conditions: HEK-293 cells
# T1 construct: expressed in transfected cells
# T1 sequence (P10499 whole entry): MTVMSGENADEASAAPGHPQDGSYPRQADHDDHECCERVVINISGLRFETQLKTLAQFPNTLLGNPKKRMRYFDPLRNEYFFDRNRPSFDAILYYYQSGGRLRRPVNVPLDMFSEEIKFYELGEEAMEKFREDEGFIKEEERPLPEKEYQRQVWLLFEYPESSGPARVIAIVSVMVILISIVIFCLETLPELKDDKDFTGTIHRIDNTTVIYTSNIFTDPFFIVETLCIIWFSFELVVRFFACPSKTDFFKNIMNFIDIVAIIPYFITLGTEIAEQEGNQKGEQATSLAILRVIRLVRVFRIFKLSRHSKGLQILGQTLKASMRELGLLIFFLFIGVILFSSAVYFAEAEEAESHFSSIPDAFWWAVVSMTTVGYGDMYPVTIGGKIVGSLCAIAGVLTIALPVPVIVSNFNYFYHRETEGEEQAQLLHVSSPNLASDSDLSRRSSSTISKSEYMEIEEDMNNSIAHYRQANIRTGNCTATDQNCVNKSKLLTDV
# T1 sequence (P63142 whole entry): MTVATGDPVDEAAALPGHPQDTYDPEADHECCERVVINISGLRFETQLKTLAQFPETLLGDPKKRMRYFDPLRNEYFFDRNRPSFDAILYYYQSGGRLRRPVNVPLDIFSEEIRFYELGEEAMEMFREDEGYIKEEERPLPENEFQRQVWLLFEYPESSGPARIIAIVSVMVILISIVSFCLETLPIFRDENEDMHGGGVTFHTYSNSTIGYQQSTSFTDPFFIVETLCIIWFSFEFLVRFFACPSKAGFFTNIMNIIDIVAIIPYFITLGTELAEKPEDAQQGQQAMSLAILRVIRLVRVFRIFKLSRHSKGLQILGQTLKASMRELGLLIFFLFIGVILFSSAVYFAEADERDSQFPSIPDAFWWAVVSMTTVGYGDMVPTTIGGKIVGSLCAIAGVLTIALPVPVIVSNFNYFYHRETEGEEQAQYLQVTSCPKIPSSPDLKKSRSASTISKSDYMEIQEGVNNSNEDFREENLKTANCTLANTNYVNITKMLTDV
# Method: (§1) Whole-cell voltage-clamp experiments were performed as outlined in Sokolov, et al., Neuropharmacol. 53:2, 272-282, (2007), whose disclosure is hereby incorporated by reference. The internal solution was (in mM): 90 KCl, 50 KF, 30 KOH, 10 EGTA, 20 HEPES, pH 7.4. The extracellular bath solution contained (in mM) 135 choline chloride, 20 KOH, 1.8 CaCl2, 1 MgCl2, and 40 HEPES, pH 7.4, and 0.01% (w/v) BSA. Solutions were exchanged by continuous flow with a peristaltic pump or a Cellectricon Dynaflow-16 system. Series resistance compensation was applied to minimize the voltage error (<10 mV). Correction was made for a calculated liquid junction potential of +8.4 mV. Holding potential was −100 mV. Leak subtraction was used to isolate K^+ current (IK). Analogue traces were filtered at 5 kHz, and sampled at 50 kHz. Non-linear fitting was carried out with equations described in (Sack et al., Gen. Physiol. 128:1, 119-132, (2006), whose disclosure is hereby incorporated by reference. Data are reported as mean±standard error; n values refer to number of individual cells tested. Statistical significance was evaluated by two-tailed Student's t-test using data obtained from at least five independent experiments performed in parallel.
# (§2) In these examples, the functional properties of the Kv1 heteromers Kv1.1-1.1-1.2-1.2, Kv1.1-1.2-1.1-1.2, […] and Kv1.2-1.1-1.2-1.1 were compared by whole-cell, voltage-clamp, conventional recordings from HEK-293 cells transfected separately with each of the 4 constructs.
# (§3) In these examples the sensitivities of the potassium channel currents mediated by these tetramers to various blockers were also examined. Inhibition by TEA, or Agitoxinl (AgTX1) and TsTX-Kα were determined.
# (§4) Whole-cell voltage-clamp was performed as described in Example 25-27, except where specified. […] Whole cell currents were measured at a holding potential of −100 mV, then depolarised to +60 mV for 200 ms or stepped from the holding potential in +10 mV increments. […]
# [2] = molecular target: T2, Kv1.2-1.1-1.2-1.1 (reverse diagonal channel) (Rattus norvegicus, UniProt P10499+P63142); test: Whole-cell voltage-clamp (QPatch) inhibition of K+ current, reverse diagonal channel; assay type: cell-based; conditions: HEK-293 cells
# T2 construct: nucleic acids encoding the full-length Kv subunit; inter-subunit linker to next subunit (region from Xenopus beta-globin UTRs); expressed in transfected cells; host or cells: HEK-293 (pIRES2-EGFP vector)
# T2 sequence (P63142 whole entry): as above
# T2 sequence (P10499 whole entry): as the sequence (P10499 whole entry) above
# T2 sequence (P63142 whole entry): as the sequence (P63142 whole entry) above
# T2 sequence (P10499 whole entry): as the sequence (P10499 whole entry) above
# Method: as §1, §2, §3, §4
# [3] = molecular target: T3, Kv1.1-1.1-1.2-1.2 (forward adjacent channel) (Rattus norvegicus, UniProt P10499+P63142); test: Whole-cell voltage-clamp (QPatch) inhibition of K+ current, adjacent channel; assay type: cell-based; conditions: for IC50: HEK-293 cells, holding −100 mV, depolarised to +60 mV
# T3 construct: nucleic acids encoding the full-length Kv subunit; inter-subunit linker to next subunit (region from Xenopus beta-globin UTRs); expressed in transfected cells; host or cells: HEK-293 (pIRES2-EGFP vector)
# T3 sequence (P10499 whole entry): as above
# T3 sequence (P10499 whole entry): as above
# T3 sequence (P63142 whole entry): as the sequence (P63142 whole entry) above
# T3 sequence (P63142 whole entry): as above
# Method: as §1, §2, §3
# (§5) Whole-cell voltage-clamp was performed as described in Example 25-27, except where specified. For larger scale recordings, an automated patch-clamp system (QPatch 16, Sophion, Denmark) was used; its disposable Qplates contain 16 individual and parallel patch-clamp positions. Cells were detached from culture plates with 0.05% trypsin/EDTA solution and kept in serum-free medium (CHO-S-SFM II [Invitrogen], 25 mM HEPES, pH 7.4, 0.04 μg/ml soya bean trypsin inhibitor, and 10 μg/ml penicillin-streptomycin) in an on-board stirred reservoir. Prior to testing, the cells were automatically transferred to an integral mini-centrifuge, pelleted, re-suspended in external solution (as detailed above) and washed before being applied to the pipeting wells in the Q plate. Giga-seals were formed upon execution of a combined suction/voltage protocol; gradually increasing suction leads to the whole-cell configuration. […] Whole cell currents were measured at a holding potential of −100 mV, then depolarised to +60 mV for 200 ms or stepped from the holding potential in +10 mV increments. […]
# [4] = molecular target: T4, Kv1.2-1.2-1.1-1.1 (reverse adjacent channel) (Rattus norvegicus, UniProt P10499+P63142); test: Whole-cell voltage-clamp (QPatch) inhibition of K+ current, reverse adjacent channel; assay type: cell-based; conditions: HEK-293 cells, holding −100 mV, depolarised to +60 mV
# T4 construct: nucleic acids encoding the full-length Kv subunit; inter-subunit linker to next subunit (region from Xenopus beta-globin UTRs); expressed in transfected cells; host or cells: HEK-293 (pIRES2-EGFP vector)
# T4 sequence (P63142 whole entry): as above
# T4 sequence (P63142 whole entry): as above
# T4 sequence (P10499 whole entry): as the sequence (P10499 whole entry) above
# T4 sequence (P10499 whole entry): as above
# Method: as §1, §2, §3, §4
# [5] = molecular target: T5, Kv1.1-1.2-1.1-1.2 (forward diagonal channel) (Rattus norvegicus, UniProt P10499+P63142); test: Whole-cell voltage-clamp (QPatch) inhibition of K+ current, diagonal channel; assay type: cell-based; conditions: for IC50: HEK-293 cells
# T5 construct: nucleic acids encoding the full-length Kv subunit; inter-subunit linker to next subunit (region from Xenopus beta-globin UTRs); expressed in transfected cells; host or cells: HEK-293 (pIRES2-EGFP vector)
# T5 sequence (P10499 whole entry): as above
# T5 sequence (P63142 whole entry): as the sequence (P63142 whole entry) above
# T5 sequence (P10499 whole entry): as the sequence (P10499 whole entry) above
# T5 sequence (P63142 whole entry): as the sequence (P63142 whole entry) above
# Method: as §1, §2, §3, §5
# [6] = molecular target: T6, Kv1.1-1.1-1.2-1.2 tetramer (Rattus norvegicus, UniProt P10499+P63142); test: Competition of 125I-αDTX binding to transfected HEK-293 cells; set-up: displacement of 125I-αDTX from the tetramer: dose or concentration left out as unconfirmed; conditions: for displacement of 125I-αDTX from the tetramer: transfected HEK-293 cells, FIG. 4B
# T6 construct: nucleic acids encoding the full-length Kv subunit; inter-subunit linker to next subunit (region from Xenopus beta-globin UTRs); expressed in transfected cells; host or cells: HEK-293 (pIRES2-EGFP vector)
# T6 sequence (P10499 whole entry): as the sequence (P10499 whole entry) above
# T6 sequence (P10499 whole entry): as above
# T6 sequence (P63142 whole entry): as the sequence (P63142 whole entry) above
# T6 sequence (P63142 whole entry): as above
# Method: HEK 293 cells are transiently transfected with a PIRES2-EGFP vector encoding Kv1.1-1.1-1.2-1.2 (also referred to as forward adjacent channel; see below) and the cells incubated to display the potassium channels on the cell membranes.
# Cells are harvested in 25 mM Tris HCl, 5 mM KCl pH 7.5 Saturatable binding of ^125I-α-dendrotoxin (DTX), a Kv1-selective toxin, was performed using a filtration assay to measure the amount of assembled channel targeted to the plasmalemma. Transfected cells suspended in binding buffer were incubated for 1 hour with increasing concentrations of labelled DTX; for non-saturable binding experiments, the incubation is performed in the presence of 1 μM unlabeled DTX. Measurements are made in triplicate under established conditions by rapid filtration through GF/F glass microfiber filters presoaked with 0.5% (w/v) polyethyleneimine. The radioactivity associated with the washed filters was quantified by γ-radiation counting.
# In FIG. […]
# [7] = molecular target: T7, Kv1.4-1.6-1.1-1.2 (Rattus norvegicus, UniProt P10499+P15385+P17659+P63142); test: Whole-cell voltage-clamp inhibition of IK, Kv1.4-containing hetero-tetramers; assay type: cell-based; conditions: Kv1.4-1.6-1.1-1.2 versus Kv1.4-1.6-1.3-1.2; 1, 10, 100 nM; assayed at ≦0 mV, FIG. 10F
# T7 construct: nucleic acids encoding the full-length Kv subunit; inter-subunit linker to next subunit (region from Xenopus beta-globin UTRs); expressed in transfected cells; host or cells: HEK-293
# T7 sequence (P15385 whole entry): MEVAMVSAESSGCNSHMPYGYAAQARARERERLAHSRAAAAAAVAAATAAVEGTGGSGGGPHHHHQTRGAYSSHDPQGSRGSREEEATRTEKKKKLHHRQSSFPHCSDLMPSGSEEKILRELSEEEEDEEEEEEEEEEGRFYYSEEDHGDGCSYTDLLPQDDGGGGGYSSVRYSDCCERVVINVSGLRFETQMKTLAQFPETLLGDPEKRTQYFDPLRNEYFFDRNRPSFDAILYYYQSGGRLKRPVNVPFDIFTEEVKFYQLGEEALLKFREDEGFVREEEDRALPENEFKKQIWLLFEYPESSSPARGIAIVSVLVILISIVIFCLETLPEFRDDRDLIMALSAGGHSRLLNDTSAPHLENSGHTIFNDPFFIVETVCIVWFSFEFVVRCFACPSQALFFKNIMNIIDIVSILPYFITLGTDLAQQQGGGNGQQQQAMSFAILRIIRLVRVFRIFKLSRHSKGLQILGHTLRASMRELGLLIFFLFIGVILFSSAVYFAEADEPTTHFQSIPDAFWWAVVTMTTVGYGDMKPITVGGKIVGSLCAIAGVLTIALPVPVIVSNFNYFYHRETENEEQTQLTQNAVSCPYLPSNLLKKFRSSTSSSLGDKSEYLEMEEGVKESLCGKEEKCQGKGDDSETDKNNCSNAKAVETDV
# T7 sequence (P17659 whole entry): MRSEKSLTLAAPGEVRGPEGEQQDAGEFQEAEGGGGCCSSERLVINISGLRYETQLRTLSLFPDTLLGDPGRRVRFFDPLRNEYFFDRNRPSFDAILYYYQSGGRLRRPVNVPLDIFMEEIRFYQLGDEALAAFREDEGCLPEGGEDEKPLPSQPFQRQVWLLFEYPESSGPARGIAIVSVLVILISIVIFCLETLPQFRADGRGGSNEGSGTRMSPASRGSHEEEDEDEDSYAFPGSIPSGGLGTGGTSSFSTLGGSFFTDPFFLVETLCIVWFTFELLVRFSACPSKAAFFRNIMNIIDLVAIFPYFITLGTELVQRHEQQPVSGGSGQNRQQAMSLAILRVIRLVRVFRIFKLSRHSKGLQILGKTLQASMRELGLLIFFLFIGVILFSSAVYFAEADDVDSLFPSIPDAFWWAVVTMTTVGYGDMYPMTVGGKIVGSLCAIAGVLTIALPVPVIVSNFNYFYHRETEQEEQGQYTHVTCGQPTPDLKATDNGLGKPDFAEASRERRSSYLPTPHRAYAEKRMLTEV
# T7 sequence (P10499 whole entry): as the sequence (P10499 whole entry) above
# T7 sequence (P63142 whole entry): as the sequence (P63142 whole entry) above
# Method: In these examples, the functional properties of the concatenated Kv1 heteromers Kv 1.1-1.1-1.2-1.2, Kv1.4-1.6-1.1-1.2 and Kv1.4-1.6-1.3-1.2 were examined by whole-cell voltage-clamped recordings from the corresponding transfected HEK-293 cells. The activation kinetics of the currents mediated by Kv 1.1-1.1-1.2-1.2 Kv 1.4-1.6-1.1-1.2 and Kv1.4-1.6-1.3-1.2 were determined.
# The sensitivities of the potassium channel currents mediated by Kv 1.1-1.1-1.2-1.2 Kv 1.4-1.6-1.1-1.2 and Kv1.4-1.6-1.3-1.2 to various blockers were also examined in these examples.
# Whole-cell voltage-clamp experiments were performed as outlined in Sokolov, et al., Neuropharmacol. 53:2, 272-282, (2007), whose disclosure is hereby incorporated by reference. The internal solution was (in mM): 90 KCl, 50 KF, 30 KOH, 10 EGTA, 20 HEPES, pH 7.4. […] Correction was made for a calculated liquid junction potential of +8.4 mV. […] Non-linear fitting was carried out with equations described in (Sack et al., Gen. Physiol. 128:1, 119-132, (2006), whose disclosure is hereby incorporated by reference. Data are reported as mean±standard error; n values refer to number of individual cells tested. Statistical significance was evaluated by two-tailed Student's t-test using data obtained from at least five independent experiments performed in parallel.
# [8] = unit printed in cell (row head says nM), read-out: IC50 AgTx1
# [9] = holding −100 mV, depolarised to +60 mV, read-out: IC50 TEA
# [10] = unit printed in cell (row head says nM), read-out: IC50 TsTxKα
compound,measurement,setting,value
"CC[C@H](C)[C@@H]1NC(=O)[C@@H]2CSSC[C@H](NC(=O)[C@H](CCCCN)NC(=O)[C@@H](NC(=O)[C@H](CC(N)=O)NC(=O)[C@@H](NC(=O)[C@@H]3CCCN3C(=O)[C@@H](NC(=O)CN)C(C)C)[C@@H](C)CC)C(C)C)C(=O)N[C@@H]([C@@H](C)O)C(=O)NCC(=O)N[C@@H](CO)C(=O)N3CCC[C@H]3C(=O)N[C@@H](CCC(N)=O)C(=O)N[C@H]3CSSC[C@H](NC(=O)[C@H](CCCCN)NC(=O)CNC(=O)[C@H](CC(N)=O)NC1=O)C(=O)N[C@@H](Cc1c[nH]cn1)C(=O)N[C@H](C(=O)N[C@H](C(=O)N1CCC[C@H]1C(=O)N[C@@H](CCCCN)C(=O)O)[C@@H](C)O)CSSC[C@H](NC(=O)[C@@H]1CCCN1C(=O)[C@H](CCCCN)NC(=O)[C@H](CC(C)C)NC3=O)C(=O)N[C@@H](CCCCN)C(=O)N[C@@H](CC(=O)O)C(=O)N[C@@H](C)C(=O)NCC(=O)N[C@@H](CCSC)C(=O)N[C@@H](CCCNC(=N)N)C(=O)N[C@@H](Cc1ccccc1)C(=O)NCC(=O)N[C@@H](CCCCN)C(=O)N2 [AgTx1, Agitoxinl] (H-GVPINVKCTGSPQCLKPCKDAGMRFGKCINGKCHCTPK-OH; disulfide 8-28, 14-33, 18-35; N-terminus and C-terminus assumed)",IC50,[1]; read-out: IC50 AgTx1,0.039 ± 0.004 µM
same,IC50,[2]; [8],≥ 1000 nM
same,IC50,[3]; read-out: IC50 AgTx1,0.005 ± 0.0004 µM
same,IC50,[4]; read-out: IC50 AgTx1,0.005 ± 0.0005 µM
same,IC50,[5]; [8],> 1000 nM
same,sensitivity to AgTX1,"[5]; diagonal oligomers, FIG. 12C",virtually insensitive
"CC[N+](CC)(CC)CC [TEA, tetraethylammonium]",IC50,[1]; read-out: IC50 TEA,12000 ± 1000 µM
same,IC50,[2]; [9],960000 ± 140000 nM
same,IC50,[3]; read-out: IC50 TEA,9700 ± 1000 µM
same,fold lower affinity for TEA than the corresponding diagonals,"[3]; forward and reverse adjacent channels versus diagonal channels, FIG. 12B",~11 fold
same,IC50,[4]; read-out: IC50 TEA,6700 ± 2000 µM
same,IC50,[5]; [9],760000 ± 100000 nM
"CC[C@H](C)[C@@H]1NC(=O)[C@H](C)NC(=O)[C@H](CCC(=O)O)NC(=O)[C@H](CCCCN)NC(=O)[C@@H]2CSSC[C@@H](C(=O)N[C@@H](Cc3ccc(O)cc3)C(=O)N3CCC[C@H]3C(=O)O)NC(=O)[C@H](CCCCN)NC(=O)[C@@H]3CSSC[C@H](NC(=O)[C@H](CCC(=O)O)NC(=O)[C@@H]4CCCN4C(=O)[C@H](CO)NC(=O)CNC(=O)[C@H](CCCNC(=N)N)NC(=O)[C@@H](NC(=O)[C@H](CCCCN)NC(=O)[C@H](C)NC(=O)[C@H](CC(N)=O)NC(=O)[C@@H](NC(=O)[C@H](Cc4ccccc4)NC(=O)[C@@H](N)C(C)C)[C@@H](C)CC)CSSC[C@H](NC(=O)[C@H](CCCCN)NC(=O)CNC(=O)[C@H](C)NC(=O)[C@H](C)NC(=O)[C@H](CCCCN)NC(=O)CNC1=O)C(=O)N[C@@H](CCSC)C(=O)N[C@@H](CC(N)=O)C(=O)NCC(=O)N[C@@H](CCCCN)C(=O)N3)C(=O)N[C@@H](CC(C)C)C(=O)N1CCC[C@H]1C(=O)N[C@@H](CCCCN)C(=O)N2 [TsTxKα, tityustoxin-Kα] (H-VFINAKCRGSPECLPKCKEAIGKAAGKCMNGKCKCYP-OH; disulfide 7-28, 13-33, 17-35; N-terminus and C-terminus assumed)",displacement of 125I-αDTX from the tetramer,[6],readily displaced
same,IC50,[1]; read-out: IC50 TsTxKα,0.033 ± 0.003 µM
same,IC50,[2]; [10],> 1000 nM
same,IC50,[3]; read-out: IC50 TsTxKα,0.026 ± 0.003 µM
same,IC50,[4]; read-out: IC50 TsTxKα,0.025 ± 0.007 µM
same,IC50,[5]; [10],> 1000 nM
"DTXk: toxin, Kv1 channel blocker competing with 125I-αDTX (AAKYCKLPLRIGPCKRKIPSFYYKWKAKQCLPFDYSGCGGNANRFKTIEECRRTCVG; ends and bridges not checked; cysteine pairing not given here)",displacement of 125I-αDTX from the tetramer,[6],readily displaced
same,"inhibition of IK, sensitivity difference between channels",[7],significant sensitivity difference
ShK: toxin competing with 125I-αDTX binding; parent of derivative ShK-Dap^22,antagonism of 125I-αDTX binding,"[6]; 2.5 μM 125I-αDTX, transfected HEK cells, FIG. 4C",to a greater extent than does the derivative ShK-Dap^22
α-dendrotoxin (QPRRKLCILHRNPGRCYDKIPAFYYNQKKKQCERFDWSGCGGNSNRFKTIEECRRTCIG) [αDTX],displacement of 125I-αDTX from the tetramer,[6],readily displaced
